Measurements as given in ChEMBL document CHEMBL4831528, “Discovery of Novel Pterostilbene-Based Derivatives as Potent and Orally Active NLRP3 Inflammasome Inhibitors with Inflammatory Activity for Colitis” (J Med Chem, 2021).
Activity calls are given as the source filed them. The calls are words filed in the database; no cut-off is given here.

Experiments:
[1] = Tmax in mouse at 20 mg/kg, po measured up to 24 hrs by LC-MS/MS analysis; format: ADME, organism-based; details: in vivo
[2] = Clearance in mouse at 2 mg/kg, iv measured after 0.08 to 24 hrs by LC-MS/MS analysis; format: ADME, organism-based; details: in vivo, time 0.08-24 hrs
[3] = Hepatic clearance in human liver microsomes preincubated for 5 mins followed by NADPH addition and measured after 5 to 60 mins by LC-MS/MS analysis; format: ADME, Microsome; details: time 5-60 min
[4] = target: NACHT, LRR and PYD domains-containing protein 3 (Mus musculus) (UniProt Q8R4B8); assay: Inhibition of NLRP3 inflammasome activation in LPS-stimulated mouse bone marrow-derived macrophages assessed as reduction in activated caspase1 p20 in supernatant at 2 uM preincubated for 30 mins followed by ATP addition and measured after 0.5 hrs by Western blot analysis; format: tissue-based; details: Macrophage, time 60.0 min
NACHT, LRR and PYD domains-containing protein 3 (Mus musculus), sequence (Q8R4B8 whole entry, the tested form may be a part): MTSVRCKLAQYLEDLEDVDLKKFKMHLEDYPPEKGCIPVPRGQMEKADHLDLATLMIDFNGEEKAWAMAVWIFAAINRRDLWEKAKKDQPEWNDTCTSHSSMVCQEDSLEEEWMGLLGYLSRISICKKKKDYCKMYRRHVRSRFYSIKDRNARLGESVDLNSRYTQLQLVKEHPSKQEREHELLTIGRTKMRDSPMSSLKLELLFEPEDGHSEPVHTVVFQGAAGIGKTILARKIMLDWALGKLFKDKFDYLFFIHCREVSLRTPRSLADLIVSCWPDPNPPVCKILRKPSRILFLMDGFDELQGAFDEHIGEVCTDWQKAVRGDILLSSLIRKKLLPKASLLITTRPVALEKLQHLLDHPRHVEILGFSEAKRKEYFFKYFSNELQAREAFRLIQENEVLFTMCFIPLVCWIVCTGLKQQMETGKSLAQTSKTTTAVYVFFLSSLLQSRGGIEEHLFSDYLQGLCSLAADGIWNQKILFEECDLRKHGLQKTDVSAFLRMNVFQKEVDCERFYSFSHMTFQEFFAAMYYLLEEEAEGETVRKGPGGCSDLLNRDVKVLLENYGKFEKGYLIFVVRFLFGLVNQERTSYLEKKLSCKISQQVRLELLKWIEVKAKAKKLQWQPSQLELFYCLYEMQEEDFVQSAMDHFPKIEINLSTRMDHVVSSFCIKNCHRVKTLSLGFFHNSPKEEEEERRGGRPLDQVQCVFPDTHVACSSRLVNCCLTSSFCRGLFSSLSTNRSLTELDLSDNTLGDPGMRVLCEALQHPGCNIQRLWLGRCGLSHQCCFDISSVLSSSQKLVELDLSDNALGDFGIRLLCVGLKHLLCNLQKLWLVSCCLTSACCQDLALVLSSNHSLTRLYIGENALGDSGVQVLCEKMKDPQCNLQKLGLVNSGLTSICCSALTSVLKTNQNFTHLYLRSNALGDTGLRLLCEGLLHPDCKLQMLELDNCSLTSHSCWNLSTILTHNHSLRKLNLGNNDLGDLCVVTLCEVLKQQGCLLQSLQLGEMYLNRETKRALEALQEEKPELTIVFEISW

[5] = target: NACHT, LRR and PYD domains-containing protein 3 (Mus musculus) (UniProt Q8R4B8); assay: Inhibition of NLRP3 inflammasome activation in LPS-stimulated mouse bone marrow-derived macrophages assessed as reduction in NEK7-NLRP3 protein-protein interaction preincubated for 30 mins followed by nigericin addition and measured after 30 mins by immunoprecipitation method; format: tissue-based; details: Macrophage, time 60.0 min
[6] = Toxicity in C57BL/6 mouse assessed as effect on spleen at 20 to 40 mg/kg, ig administered for 28 days; format: organism-based; details: in vivo, po, 672 h, dose 20-40 mg/kg, time 28 day
[7] = Intrinsic clearance in human liver microsomes preincubated for 5 mins followed by NADPH addition and measured after 5 to 60 mins by LC-MS/MS analysis; format: ADME, Microsome; details: time 5-60 min, read-out: CLH
Mus musculus [8] = assay: Downregulation of IL-1beta expression in colon of C57BL/6 mouse model of DSS-induced ulcerative colitis at 10 to 20 mg/kg, ig administered for 7 days by Western blot analysis; format: functional, organism-based; details: dose 10-20 mg/kg, time 7.0 day
BMDM [9] = assay: Effect on ASC expression in LPS-stimulated mouse bone marrow-derived macrophages at 0.5 to 2 uM preincubated for 30 mins followed by nigericin addition and measured after 30 mins by Western blot analysis; format: functional, tissue-based; details: dose 0.5-2 µM, time 60.0 min
[10] = Toxicity in C57BL/6 mouse assessed as effect on kidney at 20 to 40 mg/kg, ig administered for 28 days; format: organism-based; details: in vivo, po, 672 h, dose 20-40 mg/kg, time 28 day
[11] = target: NACHT, LRR and PYD domains-containing protein 3 (Mus musculus) (UniProt Q8R4B8); assay: Inhibition of NLRP3 inflammasome activation in LPS-stimulated mouse bone marrow-derived macrophages assessed as reduction in pro IL-1beta in cell lysate at 2 uM preincubated for 30 mins followed by MSU addition and measured after 0.5 hrs by Western blot analysis; format: subcellular; details: Macrophage, time 60.0 min
[12] = target: NACHT, LRR and PYD domains-containing protein 3 (Mus musculus) (UniProt Q8R4B8); assay: Inhibition of NLRP3 inflammasome activation in LPS-stimulated mouse bone marrow-derived macrophages assessed as reduction in cleaved IL-1beta secretion in supernatant at 2 uM preincubated for 30 mins followed by ATP addition and measured after 0.5 hrs by Western blot analysis; format: tissue-based; details: Macrophage, time 60.0 min
[13] = Toxicity in C57BL/6 mouse assessed as overactivity at 20 to 40 mg/kg, ig administered for 28 days; format: organism-based; details: in vivo, po, 672 h, dose 20-40 mg/kg, time 28 day
BMDM [14] = assay: Effect on pro-caspase1 expression in LPS-stimulated mouse bone marrow-derived macrophages at 0.5 to 2 uM preincubated for 30 mins followed by nigericin addition and measured after 30 mins by Western blot analysis; format: functional, tissue-based; details: dose 0.5-2 µM, time 60.0 min
[15] = target: NACHT, LRR and PYD domains-containing protein 3 (Mus musculus) (UniProt Q8R4B8); assay: Inhibition of NLRP3 inflammasome activation in LPS-stimulated mouse bone marrow-derived macrophages assessed as reduction in pro IL-1beta secretion in cell lysate at 2 uM preincubated for 30 mins followed by nigericin addition and measured after 0.5 hrs by Western blot analysis; format: subcellular; details: Macrophage, time 60.0 min
[16] = target: NACHT, LRR and PYD domains-containing protein 3 (Mus musculus) (UniProt Q8R4B8); assay: Inhibition of NLRP3 inflammasome activation in LPS-stimulated mouse bone marrow-derived macrophages assessed as reduction in ILbeta secretion at 2 uM preincubated for 30 mins followed by nigericin addition and measured after 0.5 hrs by ELISA; format: tissue-based; details: Macrophage, time 60.0 min
[17] = AUC (0 to infinity) in mouse at 2 mg/kg, iv measured after 0.08 to 24 hrs by LC-MS/MS analysis; format: ADME, organism-based; parameters: route intravenous, time upper 24 hrs, dose 2 mg/kg, time lower 0.08 hrs; details: in vivo
L02 = assay: Cytotoxicity against human L-02 cells incubated for 24 hrs by MTT assay; format: cell-based; details: L02, 24 h
[18] = AUC (0 to infinity) in mouse at 20 mg/kg, po measured up to 24 hrs by LC-MS/MS analysis; format: ADME, organism-based; parameters: route oral, dose 20 mg/kg, time <=24; details: in vivo
[19] = Toxicity in C57BL/6 mouse assessed as induction of convulsion at 20 to 40 mg/kg, ig administered for 28 days; format: organism-based; details: in vivo, po, 672 h, dose 20-40 mg/kg, time 28 day
Mus musculus [20] = assay: Protection against DSS-induced acute ulcerative colitis in C57BL/6 mouse assessed as reduction in decrease in goblet cells at 10 to 20 mg/kg, ig administered for 7 days by Hematoxylin and eosin staining based optical microscopy; format: functional, organism-based; details: dose 10-20 mg/kg, time 7.0 day
Mus musculus [21] = assay: In vivo inhibition of NLRP3 inflammasome activation in C57BL/6 mouse model of DSS-induced ulcerative colitis assessed as reduction in IL-1beta expression at 10 to 20 mg/kg, ig administered for 7 days by ELISA; format: functional, organism-based; details: dose 10-20 mg/kg, time 7.0 day
Mus musculus [22] = assay: Protection against DSS-induced acute ulcerative colitis in C57BL/6 mouse assessed as reduction in bloody stool at 10 to 20 mg/kg, ig administered for 7 days; format: functional, organism-based; details: dose 10-20 mg/kg, time 7.0 day
[23] = target: NACHT, LRR and PYD domains-containing protein 3 (Mus musculus) (UniProt Q8R4B8); assay: Inhibition of NLRP3 inflammasome activation in LPS-stimulated mouse bone marrow-derived macrophages assessed as reduction in NLRP3/ASC protein-protein interaction preincubated for 30 mins followed by nigericin addition and measured after 30 mins by immunoprecipitation method; format: tissue-based; details: Macrophage, time 60.0 min
[24] = target: NACHT, LRR and PYD domains-containing protein 3 (Mus musculus) (UniProt Q8R4B8); assay: Inhibition of NLRP3 inflammasome activation in LPS-stimulated mouse bone marrow-derived macrophages assessed as reduction in pro IL-1beta secretion in cell lysate at 2 uM preincubated for 30 mins followed by ATP addition and measured after 0.5 hrs by Western blot analysis; format: subcellular; details: Macrophage, time 60.0 min
Mus musculus [25] = assay: Protection against DSS-induced acute ulcerative colitis in C57BL/6 mouse assessed as reduction in body weight at 10 to 20 mg/kg, ig administered for 7 days; format: functional, organism-based; details: dose 10-20 mg/kg, time 7.0 day
[26] = target: NACHT, LRR and PYD domains-containing protein 3 (Mus musculus) (UniProt Q8R4B8); assay: Inhibition of NLRP3 inflammasome activation in LPS-stimulated mouse bone marrow-derived macrophages assessed as reduction in caspase1 p20 in supernatant at 2 uM preincubated for 30 mins followed by MSU addition and measured after 0.5 hrs by Western blot analysis; format: tissue-based; details: Macrophage, time 60.0 min
[27] = target: NACHT, LRR and PYD domains-containing protein 3 (Mus musculus) (UniProt Q8R4B8); assay: Inhibition of NLRP3 inflammasome activation in LPS-stimulated mouse bone marrow-derived macrophages assessed as reduction in pro caspase1 secretion in cell lysate at 2 uM preincubated for 30 mins followed by nigericin addition and measured after 0.5 hrs by Western blot analysis; format: subcellular; details: Macrophage, time 60.0 min
[28] = Half life in mouse at 2 mg/kg, iv measured after 0.08 to 24 hrs by LC-MS/MS analysis; format: ADME, organism-based; details: in vivo, time 0.08-24 hrs
[29] = target: NACHT, LRR and PYD domains-containing protein 3 (Mus musculus) (UniProt Q8R4B8); assay: Inhibition of NLRP3 inflammasome activation in LPS-stimulated mouse bone marrow-derived macrophages assessed as attenuation of ASC dimer at 1 to 4 uM preincubated for 30 mins followed by nigericin addition and measured after 0.5 hrs by Western blot analysis; format: tissue-based; details: Macrophage, dose 1-4 µM
[30] = target: NACHT, LRR and PYD domains-containing protein 3 (Mus musculus) (UniProt Q8R4B8); assay: Inhibition of NLRP3 inflammasome activation in LPS-stimulated mouse bone marrow-derived macrophages assessed as reduction in cleaved IL-1beta secretion preincubated for 30 mins followed by nigericin addition and measured after 30 mins by Western blot analysis; format: tissue-based; details: Macrophage, time 60.0 min
Mus musculus [31] = assay: Downregulation of TNFalpha expression in C57BL/6 mouse model of DSS-induced ulcerative colitis at 10 to 20 mg/kg, ig administered for 7 days by ELISA; format: functional, organism-based; details: dose 10-20 mg/kg, time 7.0 day

SMILES: COc1cc(/C=C/c2ccc(NC(=O)C3CC3)cc2)c(/C=C/[N+](=O)[O-])c(OC)c1
- Tmax [1]: 2.33 h
- clearance [2]: 87.5 mL/min/kg
- CLhep predicted [3]: 11 mL/min/kg
- inhibition [4]: Active
- inhibition [5]: Dose-Dependent Effect
- Activity [6]: Non-Toxic
- microsomal CLint [7]: 20.3 µL/min/mg
- Activity (Mus musculus [8]): Active
- Activity (BMDM [9]): inactive
- Activity [10]: Non-Toxic
- inhibition [11]: Active
- inhibition [12]: Active
- Activity [13]: Non-Toxic
- Activity (BMDM [14]): inactive
- inhibition [15]: Active
- inhibition [16]: Active
- AUC(0-inf) [17]: 583 ng·h/mL
- IC50 (L02): > 100 µM
- AUC [18]: 845.93 ng·h/mL
- Activity [19]: Non-Toxic
- Activity (Mus musculus [20]): Active
- inhibition (Mus musculus [21]): Active
- Activity (Mus musculus [22]): Active
- inhibition [23]: Dose-Dependent Effect
- inhibition [24]: Active
- Activity (Mus musculus [25]): Active
- inhibition [26]: Active
- inhibition [27]: Active
- half-life [28]: 0.96 h
- inhibition [29]: Active
- inhibition [30]: Dose-Dependent Effect
- Activity (Mus musculus [31]): Active
